In one series the test system is diagnosed torn muscle. Kind of series: Treatment of a subject with diagnosed torn muscle. Type of series: in vivo, human. As to conditions: person; for side effect of the prescriptions: NAPROSYN and FLEXERIL prescribed together; for relief by the third day: NAPROSYN and FLEXERIL prescribed together with bed rest, ice packs, heat. The source says:
The seventh subject was a person with a diagnosed torn muscle. Emergency Room treatment prescribed NAPROSYN (the trademark name for the drug naproxen sodium) an NSAID, and FLEXERIL(the trademark name for the drug cyclobenzaprene) a muscle relaxant. Also prescribed was bed rest and ice packs for the next 2 to 3 days. Heat was to be used by the second day to relieve spasm. […] This subject was given a protocol of 5 gram of ACI per dose, not the 3 gram ACI per dose as in the previous examples. This protocol was to be taken every hours 4 times per day.
In all examples mentioned there was no compounding of any pills and no placebos were given.

For a further series, the system named is arthritis. Conditions: as reported by the American Rheumatism Association; cited from earlier work.

Here are results for three compounds from US6492334B1, “Tri-compound analgesic for treating inflammation and pain” (priority 1999, dated 2002).

Structures are written as SMILES.

For the compound `CN(C)CCC=C1c2ccccc2C=Cc2ccccc21` [FLEXERIL, cyclobenzaprene], in the series on diagnosed torn muscle, the “side effect of the prescriptions” value is “made them drowsy” and the “relief by the third day” value is listed as “no relief”.

On to `COc1ccc2c(c1)c(CC(=O)O)c(C)n2C(=O)c1ccc(Cl)cc1` [INDOCIN, indomethacin], for which the “effect on arthritis compared with placebo” value with arthritis is listed as “no more effect on arthritis than a placebo”.

For the compound `COc1ccc2cc([C@H](C)C(=O)O)ccc2c1` [NAPROSYN, naproxen sodium], in the series on diagnosed torn muscle, the “side effect of the prescriptions” value is “made them drowsy” and the “relief by the third day” value was “no relief”.
